Test results reported in US6905852B1, “Herbicide-resistant protoporphyrinogen oxidase isolated from Nicotiana tabacum” (Nihon Nohyaku Co., Ltd., priority 1997, dated 2005).

Columns and labels:
[1] = molecular target: T1, protoporphyrinogen oxidase extracted from ETR-245 (Nicotiana tabacum, UniProt O24163, A231V); assay: Protoporphyrinogen oxidase activity of crude enzyme preparation; type: biochemical
T1 construct: from tissue; host or cells: tobacco callus, herbicide-tolerant cell line ETR-245; crude particulate fraction
T1 sequence (O24163 51-548 A231V): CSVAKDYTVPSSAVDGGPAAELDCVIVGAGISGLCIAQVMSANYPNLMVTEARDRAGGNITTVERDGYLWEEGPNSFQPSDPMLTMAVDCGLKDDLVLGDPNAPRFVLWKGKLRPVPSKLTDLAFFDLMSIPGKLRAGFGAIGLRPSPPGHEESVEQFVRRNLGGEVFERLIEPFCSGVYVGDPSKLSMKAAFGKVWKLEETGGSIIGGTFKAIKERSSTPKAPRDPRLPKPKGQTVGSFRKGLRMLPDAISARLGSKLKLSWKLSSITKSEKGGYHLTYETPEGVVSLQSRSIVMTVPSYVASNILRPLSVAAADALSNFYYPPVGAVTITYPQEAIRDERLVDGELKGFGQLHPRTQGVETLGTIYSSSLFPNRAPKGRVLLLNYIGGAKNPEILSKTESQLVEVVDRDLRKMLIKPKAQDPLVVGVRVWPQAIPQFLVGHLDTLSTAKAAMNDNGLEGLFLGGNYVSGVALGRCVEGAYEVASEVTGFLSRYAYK
Procedure: (§1) Using the same procedures described in Nicolaus, B. et al. (1993) in “Target Assay for Modern Herbicide and Related Phytotoxic Compound” Lewis Publishers, pp. 35-41, five volume of extraction buffer (50 mM Tris-HCl (pH 7.5), 0.5 M sucrose, 0.2% BSA, 1 mM EDTA) was added to callus which was cultured in MS solid medium for one month, and homogenized. After filtration with gauze, filtrate was centrifuged with 10,000×g at 4° C. for 5 minutes. Thus obtained precipitate was suspended with 25 ml of ethanol buffer, centrifuged with 150×g at 4° C. for 2 minutes. Thus obtained supernatant was centrifuged with 4,000×g at 4° C. for 15 minutes, and the precipitate was dissolved with 2 ml of 20% glycerol. The protein amount in the obtained crude enzyme preparation was measured with the protein measuring kit (manufactured by Bio-Rad Co., Ltd.).
(§2) The powder of sodium amalgam was prpared as follows. Into a round flask of 500 ml volume, 13 g of mercury and 0.5 g of thin-layer metal sodium were added, and equilibrated with nitrogen gas for 5 minutes, and it was shaked for 5 minutesthen. […] of protoporphyrin IX was dissolved into 10 mM KOH containing 15 ml of 20% ethanol, incubated at 4° C. To 4 ml of the protoporphyrin IX solution, equal amount of reaction mixture (0.1 M MES, 50 mM ascorbic acid) was added, and 16 mg of sodium amalgam freshly prepared was added, and shaken vigorously under nitrogen gas in a dark. The reaction mixture was filtered with a three-layer glass filter in a dark, and diluted 2.5 times with 0.1 M MES (pH4.5), and divided into 1 ml each in a light-shielded test tube and stored at −80° C.
(§3) 3 ml of reaction buffer (100 mM Tris-HCl (pH 7.6), 1 mM EDTA, 5 mM DTT, 0.03% Tween 80) were added to a cell of a fluorescence spectrophotometer, then, the crude enzyme prparation was added at the final concentration of 0.1 mg protein/ml, and it was heated gradually to room temperature. After heating, protoporphyrinogen IX was added at the final concentration of 2 μM, and the gaseous phase was replaced with nitrogen gas, and a reaction was started. Fluorescence was monitored with a spectrophotometer for 30 minutes starting 10 minutes after the start of the reaction, and enzyme activity was measured (Ex:405 nm,Em:631.5 nm).
(§4) Activity of protoporphyrinogen oxidase in crude enzyme preparation which was extracted from a sensitive tobacco and ETR-245 and the extent of inhibition by compound A were compared (Table 4). As a result, activity of the crude enzyme preparation derived from the sensitive strain was 2.39 units, and the activity of the crude enzyme liquid derived from ETR-245 strain was 2.85 units, and there was no large difference between the activities. […] Incidentally, since the reaction mixture became turbidat the concentration of more than 5,000 nM, it was impossible to measure the fluoroescence. From the above results, the resistant mechanism in ETR-245 to the photobleaching herbicide could be thought that the some mutations in the structure of the enzyme occurred, and was not over production of protoporphyrinogen oxidase which was a target enzyme of photobleaching herbicide.

[2] = molecular target: T2, protoporphyrinogen oxidase extracted from the sensitive cell line (Nicotiana tabacum, UniProt O24163, A174P/A191P/T382S); assay: as above; type: biochemical
T2 construct: from tissue; host or cells: tobacco callus, herbicide-sensitive cell line; crude particulate fraction
T2 sequence (O24163 51-548 A174P/A191P/T382S): as the sequence (O24163 51-548 A231V) above, with A124P, A141P, V181A, T332S counted along it
Procedure: as §1, §2, §3, §4

[3] = system: transformed tobacco plant, Tobacco wild type (pBI-NtPX-HC); assay: Leaf disk method, bleaching; type: cell-based, N. Tabacum var. SR1
Procedure: (§5) The A. tumefacience having the binary vector which had been stored at −80° C. was cultured with shaking at 27° C. for 24 hours in 523 liquid medium (1% sucrose, 0.8% Bacto-tryptone, 0.4% Bacto-yeast extract, 0.2% K2HPO4, 0.03% MgSO4.7H2O) containing kanamycin. A disk (9 mm diameter) of a tobacco (N. Tabacum var. SR1) leaf which had been surface sterilized was immersed for one minute into the culture of the A. tumefacience, and then the culture liquid attached thereon was removed with a sterilized paper towel. The leaf disk was transferred into MS agar medium containing 0.6% agar in which 2 ppm NAA and 0.2 ppm BA were added, with the reverse side of leaf being made upside, and incubated at 25° C. for 48 hours. The leaf disk was transferred into MS liquid medium containing 500 ppm carbenicillin, 200 ppm claforan, 2 ppm NAA and 0.2 ppm BA and cultured with shaking at 27° C. for 48-72 hours to remove A. tumefacience. The leaf disk was transferred into MS liquid medium containing 0.6% agar, 100 ppm of carbenycillin, 200 ppm of claforan and 150 ppm of kanamycin, 2 ppm NAA and 0.2 ppm BA and incubated at 27° C. for 2-3 weeks and formation of shoot was induced. The shoot was transferred into medium for root development (½ MS, 0.02 ppm IBA, 1.5% sucrose, 0.2% gellan gum) and development of root was introduced. The young plant thus obtained was transferred into culture soil, and was grown in a green house.
(§6) From the transformed plant with which the confirmation of introduction of gene was finished, and non-transformed plant used as a control, a leaf almost the same position of the leaf was picked and 9 mm diameter leaf disks were prepared, and floated on a dish in which 0, 125, 250, 1,250, 2,500, 5,000, 12,500 nM of compound A aqueous solution were contained. After incubation at 27° C. for one week under continuous strong light, the bleaching of the leaf disks was observed, and the permissive concentration to compound A was calculated. As a result (Table 7), in case that the tolerant type of protoporphirinogen oxidase cDNA from tobacco was introduced by pBI-NtPX-RC, more than 100 times of tolerance was observed comparing to the control non-transformed plant. However, in case that rsistant type cDNA from Arabidopsis thaliana was introduced by pBI-AtPX-RC, 4 times of resistance was observed comparing to the control, and in case that the wild type cDNA was introduced, high resistance was not observed in each case.

[4] = system: transformed tobacco plant, Arabidopsis thaliana resistant type (pBI-AtPX-RC); assay: Leaf disk method, bleaching; type: cell-based, N. Tabacum var. SR1
Procedure: as §5, §6

[5] = system: transformed tobacco plant, Arabidopsis thaliana wild type (pBI-AtPX-HC); assay: Leaf disk method, bleaching; type: cell-based, N. Tabacum var. SR1
Procedure: as §5, §6

CCOC(=O)COc1cc(-c2nn(C)c(OC(F)F)c2Cl)c(F)cc1Cl [Compound A, ethyl 2-chloro-5-(4-chloro-5-difluoromethoxy-1-methyl-1H-pyrazol-3-yl)-4-fluorophenoxyacetate]
Enzyme activity(unit) ([1]; ETR-245, 10 nM, 1 unit = 1 nM protoporphyrin IX/min/mg protein): 3.59 unit
Enzyme activity(unit) ([1]; ETR-245, 40 nM): 4.41 unit
Enzyme activity(unit) ([1]; ETR-245, 100 nM): 2.21 unit
Enzyme activity(unit) ([1]; ETR-245, 500 nM): 3.49 unit
Enzyme activity(unit) ([1]; ETR-245, 1,000 nM): 2.85 unit
Enzyme activity(unit) ([1]; ETR-245, 2,400 nM): 2.48 unit
Enzyme activity(unit) ([1]; ETR-245, 5,000 nM): 1.56 unit
IC50 ([1]; IC50 value (nM), crude enzyme from ETR-245): ≥ 5000 nM
resistance at enzyme level (ETR-245 vs sensitive) ([1]; ratio of IC50 values): more than 100 times
IC50 [2]: 48 nM
Enzyme activity(unit) ([2]; Sensitive, 10 nM, 1 unit = 1 nM protoporphyrin IX/min/mg protein): 4.32 unit
Enzyme activity(unit) ([2]; Sensitive, 20 nM): 3.62 unit
Enzyme activity(unit) ([2]; Sensitive, 40 nM): 1.84 unit
Enzyme activity(unit) ([2]; Sensitive, 100 nM): 0.00 unit
Enzyme activity(unit) ([2]; Sensitive, 500 nM): 0.00 unit
Enzyme activity(unit) ([2]; Sensitive, 1,000 nM): 0.00 unit
Enzyme activity(unit) ([2]; Sensitive, 2,400 nM): 0.00 unit
Enzyme activity(unit) ([2]; Sensitive, 5,000 nM): 0.00 unit
Permission conc. to compound A [3]: 500 nM
Resistance ([3]; vs non-transformed): 4 X
Permission conc. to compound A ([4]; Arabidopsis thaliana resistant type (pBI-AtPX-RC)): 500 nM
Resistance ([4]; Arabidopsis thaliana resistant type, vs non-transformed): 4 X
Permission conc. to compound A ([5]; Arabidopsis thaliana Wild type (pBI-AtPX-HC)): 250 nM
Resistance ([5]; Arabidopsis thaliana Wild type, vs non-transformed): 2 X
